{"source": "patent US20200113852A1", "about": "“METHODS OF PATIENT SELECTION AND TREATING TRXR- OR PRDX-OVEREXPRESSED CANCERS” (TRIACT THERAPEUTICS, INC., priority 2017, published 2020)", "key": {"HCT116 cells": {"tested_on": "HCT116 cells", "assay": "Iniparib metabolites release, XLC-MS/MS of incubation media", "format": "in vitro ADME, human", "set-up": "unit not given beside the values", "experimental": "(§1) Online solid phase extraction (SPE) was performed using the fully automated Spark Holland Symbiosis™ (Emmen, The Netherlands) in eXtraction Liquid Chromatography (XLC) mode. The Symbiosis™ has previously been described in detail (18). HySphere™ C18 HD 7 μm SPE cartridges were used (Spark Holland). Each cartridge was initially conditioned with 2 ml methanol+0.5% formic acid (FA) and then equilibrated with 2 ml water+0.5% FA, both at flow-rates of 4 ml/min. Sample (25 μl) was aspirated and loaded onto the cartridge with 1 ml water+0.5% FA at a flow-rate of 1 ml/min. […] After elution, the right clamp was washed successively with 2 ml water+0.5% FA, 2 ml methanol+0.5% FA and 2 ml water+0.5% FA at 4 ml/min. […] The mobile phase composition was returned to starting conditions over 1 min and maintained during 6 min for column equilibration. The total run time was 27 min. Mass spectrometry was performed using the Thermo® TSQ Quantum Discovery Max in electrospray positive ionization mode (Thermo, US) with the following parameters: capillary voltage=4.0 kV, capillary temperature=300° C., sheath gas pressure=40, auxiliary gas pressure=5.\n(§2) All values are expressed as means±SEM of three independent experiments. ND., non detectable."}, "MDA-MB-453 cells": {"tested_on": "MDA-MB-453 cells", "assay": "Iniparib metabolites release, XLC-MS/MS of incubation media", "format": "in vitro ADME, human", "set-up": "unit not given beside the values", "experimental": "as §1, §2"}, "TrxR1": {"target": "T1, TrxR1 (Homo sapiens, UniProt Q16881)", "T1 sequence (Q16881 1-499 isoform Q16881-5)": "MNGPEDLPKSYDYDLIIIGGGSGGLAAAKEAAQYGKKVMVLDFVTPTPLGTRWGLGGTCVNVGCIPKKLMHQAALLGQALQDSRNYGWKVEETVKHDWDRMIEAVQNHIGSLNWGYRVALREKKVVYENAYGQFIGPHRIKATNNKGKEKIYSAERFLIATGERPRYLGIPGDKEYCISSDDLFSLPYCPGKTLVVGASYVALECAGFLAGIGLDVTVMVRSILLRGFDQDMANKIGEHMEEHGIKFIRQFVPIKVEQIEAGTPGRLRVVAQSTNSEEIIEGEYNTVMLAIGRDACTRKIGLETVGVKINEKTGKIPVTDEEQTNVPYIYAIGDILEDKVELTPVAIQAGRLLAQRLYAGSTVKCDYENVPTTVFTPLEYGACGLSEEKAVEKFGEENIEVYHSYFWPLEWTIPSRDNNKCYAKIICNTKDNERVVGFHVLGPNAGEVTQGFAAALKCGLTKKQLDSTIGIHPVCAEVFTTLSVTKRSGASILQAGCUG", "assay": "Mass spectrometry of immunoprecipitated TrxR1 modified by Iniparib in HCT116 cells", "format": "cell-based", "set-up": "TrxR1 and TrxR2 were immunoprecipitated from octylglucoside cell extracts (12 mg proteins); endogenous in cells; host or cells: HCT116 (BSO-pretreated)", "conditions": "for TrxR1 modified on Sec residue: 100 μM, GSH-depleted HCT116", "experimental": "After separation by SDS-PAGE under reducing conditions and PageBlue® protein staining (Thermo scientific), bands of interest were excised, reduced with DTT, alkylated with iodoacetamide and in-gel digested with trypsin (Promega), according to the method of Shevchenko et al. (24). Peptides were extracted with 50 mM ammonium bicarbonate and 50% acetonitrile in 0.2% formic acid and analyzed by Nano LC-MS/MS after partial evaporation in a speed-vac concentrator. LC-MS/MS experiments were performed on an NanoAcquity UPLC (Waters) coupled to a hybrid LTQ Orbitrap Velos mass spectrometer (Thermo Fisher Scientific) equipped with a nanoelectrospray source. Tryptic digests were loaded onto a nanoAcquity UPLC Trap column (Symmetry C18, 5 μm, 180 μm×20 mm, Waters) and washed with 0.2% FA at 20 μl/min for 5 min. Peptides were then eluted on a C18 reverse-phase nanoAcquity column (BEH130 C18, 1.7 μm, 75 μm×250 mm, Waters) with a linear gradient of 7-30% solvent B (H2O/CH3CN/HCOOH, 10:90:0.2, by vol.) for 85 min, 30-90% solvent B for 10 min, and 90% solvent B for 5 min, at a flow rate of 250 nL/min. The mass spectrometer was operated in the data-dependent mode to automatically switch between MS and MS/MS acquisition. Survey full scan MS spectra (m/z 300-1,600) were acquired in the Orbitrap with a resolution of 60,000 at m/z 400. The AGC was set to 1×10^6 with a maximum injection time of 100 ms. The most intense ions (up to 20) were then isolated for fragmentation in the LTQ linear ion trap with normalized collision energy of 28% at the default activation q of 0.25 with an AGC of 5×10^3 and a maximum injection time of 200 ms. The dynamic exclusion time window was set to 80 s. LC-MS/MS data, acquired using the Xcalibur software (Thermo-Fisher Scientific), were processed using a homemade Visual Basic program software developed using XRawfile libraries (distributed by Thermo-Fisher Scientific) to generate a MS/MS peak list (MGF file) which will be used for database searching. This MGF file contained the exact parent mass and the retention time (RT) associated with each MS/MS spectrum. The exact parent mass is the 12C isotope ion mass of the most intense isotopic pattern detected on the high resolution Orbitrap MS parallel scan and included in the MS/MS selection window. The RT is issued from the LTQ-MS/MS scan. Database searches were done using our internal MASCOT server (version 2.1, matrix Science) using the SwissProt human database. […] The precursor mass tolerance was set to 5 ppm and the fragment ion tolerance was set to 0.5 Da. The number of missed cleavage sites for trypsin was set to 3. Mascot result files (“.dat” files) were imported into Scaffold software. Scaffold (version 3.4.5, Proteome software Inc., Portland, Oreg.) was used to validate MS/MS based peptide and protein identifications. Queries were also used for XTandem parallel Database Search. The compiled results of both database searches were exported."}}, "data": [{"smiles": "NC(=O)c1ccc(I)c([N+](=O)[O-])c1", "note": "[Iniparib, 4-iodo-3-nitrobenzamide]", "values": [{"measurement": "Iniparib and metabolites in incubation media", "setting": "HCT116 cells; HCT116 w BSO, 1 h after 100 μM Iniparib", "value": "87.6 ± 3.5"}, {"measurement": "Iniparib and metabolites in incubation media", "setting": "HCT116 cells; HCT116 w BSO, 5 h after 100 μM Iniparib", "value": "84.5 ± 6.7"}, {"measurement": "Iniparib and metabolites in incubation media", "setting": "HCT116 cells; HCT116 w BSO, 24 h after 100 μM Iniparib", "value": "72.9 ± 7.4"}, {"measurement": "Iniparib and metabolites in incubation media", "setting": "HCT116 cells; HCT116 w/o BSO, 1 h after 100 μM Iniparib", "value": "59.2 ± 0.6"}, {"measurement": "Iniparib and metabolites in incubation media", "setting": "HCT116 cells; HCT116 w/o BSO, 5 h after 100 μM Iniparib", "value": "8.9 ± 0.4"}, {"measurement": "Iniparib and metabolites in incubation media", "setting": "MDA-MB-453 cells; MDA-MB-453 w BSO, 1 h after 100 μM Iniparib", "value": "91.4 ± 5.1"}, {"measurement": "Iniparib and metabolites in incubation media", "setting": "MDA-MB-453 cells; MDA-MB-453 w BSO, 5 h after 100 μM Iniparib", "value": "88.9 ± 10.2"}, {"measurement": "Iniparib and metabolites in incubation media", "setting": "MDA-MB-453 cells; MDA-MB-453 w BSO, 24 h after 100 μM Iniparib", "value": "74.2 ± 10.8"}, {"measurement": "Iniparib and metabolites in incubation media", "setting": "MDA-MB-453 cells; MDA-MB-453 w/o BSO, 1 h after 100 μM Iniparib", "value": "87.1 ± 1.3"}, {"measurement": "Iniparib and metabolites in incubation media", "setting": "MDA-MB-453 cells; MDA-MB-453 w/o BSO, 5 h after 100 μM Iniparib", "value": "64.0 ± 8.8"}, {"measurement": "Iniparib and metabolites in incubation media", "setting": "MDA-MB-453 cells; MDA-MB-453 w/o BSO, 24 h after 100 μM Iniparib", "value": "12.2 ± 4.3"}, {"measurement": "TrxR1 modified on both adjacent Cys and Sec residues", "setting": "TrxR1; 1 h", "value": 0.8, "unit": "%"}, {"measurement": "TrxR1 modified on Sec residue", "setting": "TrxR1; 1 h", "value": 50, "unit": "%"}, {"measurement": "5 other TrxR1 peptides modified on Cys residues, altogether", "setting": "TrxR1; 4 h", "value": "less than 7 % of the total protein"}, {"measurement": "TrxR1 modified on both adjacent Cys and Sec residues", "setting": "TrxR1; 4 h", "value": 4.7, "unit": "%"}, {"measurement": "TrxR1 modified on Sec residue", "setting": "TrxR1; 4 h", "value": 67, "unit": "%"}]}]}
